The text below walks through data of article PMC12490239, “Combining BET inhibition with SMAC mimetics restricts tumor growth and triggers immune surveillance in preclinical cancer models” (Cell Reports Medicine, 2025).

Some results are limits rather than exact numbers.

Common to all, as to assay: cells
Common to all, as to set-up: CellTiter-Glo 2.0 luminescence proliferation/viability assay, single agents, human tumour cell line panel

Test [1] concerns CCK81. To be noted: 96 h; single agent; read-out: IC50 SMACm. The procedure, abridged: (§1)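 Human tumour cell lines were seeded into assay plates and held at 37°C with 5% CO2 for twenty-four hours, then exposed in triplicate to rising concentrations of the SMAC mimetic, from 4.5 nM to 10 μM, with DMSO as control. After 96 h, viability was read as CellTiter-Glo2.0 luminescence to derive single-agent IC50 values.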

Test [2] relates to NCI-H2126. To be noted: Homo sapiens, NCI-H2126, 96 h; single agent; read-out: IC50 SMACm. The procedure, abridged:
as §1

Test [3] concerns LS-174T. To be noted: Homo sapiens, LS174T, 96 h; single agent; read-out: IC50 SMACm. The method in brief: as §1
The subject of test [4] is RERF-GC-1B. To be noted: 96 h; single agent; read-out: IC50 SMACm. The method in brief: as §1
In test [5] the test system is SW837. To be noted: Homo sapiens, SW837, 96 h; single agent; read-out: IC50 SMACm. The method in brief:
as §1

The test system of test [6] is A549. The note with it: Homo sapiens, A549, 96 h; single agent; read-out: IC50 SMACm. The procedure, abridged:
as §1

Test [7] concerns GSU. To be noted: 96 h; single agent; read-out: IC50 SMACm. The procedure, abridged: as §1
Test [8] relates to DLD-1. The note with it: Homo sapiens, DLD-1, 96 h; single agent; read-out: IC50 SMACm. The method in brief:
as §1

Test [9] relates to LU-65. To be noted: Homo sapiens, Lu-65, 96 h; single agent; read-out: IC50 SMACm. The procedure, abridged:
as §1

Test [10] deals with NUGC-3. The note with it: Homo sapiens, NUGC-3, 96 h; single agent; read-out: IC50 SMACm. The method in brief:
as §1

For test [11], the system named is HUTU80. To be noted: Homo sapiens, HuTu80, 96 h; single agent; read-out: IC50 SMACm. The procedure, abridged:
as §1

The subject of test [12] is ChaGo-K-1. The note with it: Homo sapiens, ChaGo-K-1, 96 h; single agent; read-out: IC50 SMACm. The procedure, abridged:
as §1

Test [13] has as its system COCM1. To be noted: CoCM-1, 96 h; single agent; read-out: IC50 SMACm. The procedure, abridged:
as §1

For test [14], the system named is SNU977. To be noted: 96 h; single agent; read-out: IC50 SMACm. The procedure, abridged: as §1
Test [15] deals with HCA7. To be noted: HCA-7, 96 h; single agent; read-out: IC50 SMACm. The method in brief:
as §1

Turning to `CN[C@@H](C)C(=O)Nc1ccc(-c2c(-c3cccnc3OC)nc3cc(C)ccn23)c(C#Cc2ccc3c(C)nccc3c2)n1` [SMACm, BI 891065], the IC50 (commonly the point on the concentration scale where inhibition reaches its midpoint) was 7.34 µM in [1]; 6.14 µM in test [2]; 2.41 µM in [3]; 4.29 µM in [4]; 6.24 µM in test [5]; greater than 10 µM in test [6]. The IC50 is 5.68 µM in test [7]; 5.19 µM in test [8]; 4.35 µM in test [9]; 4.59 µM in test [10]; 1.36 µM in test [11]; 5.42 µM in test [12]. Moreover, the IC50 in [13] is 7.58 µM; in test [14], 2.88 µM; in test [15], 2.83 µM.
